Data published in article PMC11990924, “Inhibition of Tyrosinase and Melanogenesis by Carboxylic Acids: Mechanistic Insights and Safety Evaluation” (Molecules, 2025).
Converted amounts (≈) assume the structure as drawn. Read-outs that look alike come from different tables or passages of the source.

Legend:
[1] = target: mushroom tyrosinase (Agaricus bisporus, UniProt C7FF04); test: Inhibition of mushroom tyrosinase activity (L-DOPA, OD475); type: biochemical; details: read-out: tyrosinase inhibition rate
Chain of mushroom tyrosinase (C7FF04 2-392): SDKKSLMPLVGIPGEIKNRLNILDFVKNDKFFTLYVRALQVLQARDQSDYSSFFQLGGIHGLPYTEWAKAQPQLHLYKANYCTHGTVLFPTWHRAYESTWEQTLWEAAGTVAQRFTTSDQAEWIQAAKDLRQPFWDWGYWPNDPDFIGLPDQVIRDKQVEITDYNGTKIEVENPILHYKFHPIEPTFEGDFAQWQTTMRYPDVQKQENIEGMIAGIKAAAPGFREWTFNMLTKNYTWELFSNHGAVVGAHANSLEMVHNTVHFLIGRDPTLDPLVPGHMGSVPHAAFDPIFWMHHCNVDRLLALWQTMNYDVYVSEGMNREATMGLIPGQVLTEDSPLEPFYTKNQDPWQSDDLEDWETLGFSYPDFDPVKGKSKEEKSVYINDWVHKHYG
Experimental: L-DOPA solution (5 mM) and tyrosinase (400 U/mL) (Sigma-Aldrich, St. Louis, MO, USA) were prepared in PBS buffer (pH 7.4) (Qingdao Hope Bio-Technology Co., Ltd., Qingdao, China). A reaction mixture was prepared by combining 240 μL of carboxylic acid at various concentrations, 360 μL of L-DOPA solution, and 120 μL of tyrosinase. […] Deionized water was used as the control.

[2] = target: T1, tyrosinase (Agaricus bisporus, UniProt C7FF04); test: Fluorescence spectra analysis of tyrosinase; type: binding, mushroom; details: 6 mM; excitation 280 nm
T1 construct: purchased Sigma-Aldrich
T1 sequence (C7FF04 1-392 limits assumed): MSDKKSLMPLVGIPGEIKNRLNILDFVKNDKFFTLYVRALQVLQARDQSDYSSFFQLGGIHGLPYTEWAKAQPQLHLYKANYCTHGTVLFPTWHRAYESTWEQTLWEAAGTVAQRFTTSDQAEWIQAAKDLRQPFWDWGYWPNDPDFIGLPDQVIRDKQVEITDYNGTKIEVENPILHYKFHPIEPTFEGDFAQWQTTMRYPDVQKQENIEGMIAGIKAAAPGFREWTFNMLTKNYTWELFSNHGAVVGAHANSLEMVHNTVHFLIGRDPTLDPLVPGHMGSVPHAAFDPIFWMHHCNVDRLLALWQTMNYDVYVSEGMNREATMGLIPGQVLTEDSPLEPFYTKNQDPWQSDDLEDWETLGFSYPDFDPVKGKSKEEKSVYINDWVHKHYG
Experimental: Carboxylic acid solutions at various concentrations were mixed with PBS buffer and tyrosinase (final concentration of 60 U/mL) and then transferred to a black 96-well plate. Fluorescence analysis was conducted using a microplate reader (Infinite 200Pro, Tecan).

[3] = target: T1, tyrosinase; test: Kinetic analysis of tyrosinase (Lineweaver–Burk); type: biochemical, mushroom; details: for inhibition mechanism: Lineweaver–Burk double-reciprocal plots
Experimental: L-DOPA solutions at various concentrations (0.5, 1, 2, and 4 mM) were prepared in PBS buffer (pH 7.4) and mixed with carboxylic acids at different concentrations and tyrosinase (final concentration of 60 U/mL). […] The reaction rates were calculated based on the OD values. To analyze the inhibition types of the four carboxylic acids on tyrosinase, double-reciprocal Lineweaver–Burk plots were constructed with 1/v (reaction rate) as the y-axis and 1/[S] (substrate concentration) as the x-axis. The maximum reaction velocity (Vmax) and Michaelis constant (Km) were determined using GraphPad Prism 10 (GraphPad Software, Massachusetts, USA).

[4] = pH of carboxylic acid mixed with PBS buffer, without tyrosinase; type: physicochemical; details: in PBS buffer, absence of tyrosinase
[5] = L-DOPA auto-oxidation analysis; details: for L-DOPA auto-oxidation inhibition rate: 1.5 mM; for IC50: 37 °C, 12 h, calculated using SPSS, read-out: IC50 for L-DOPA auto-oxidation inhibition
Experimental: A 5 mM L-DOPA solution was prepared in PBS buffer (pH 7.4). Subsequently, 240 μL of carboxylic acid solution, 360 μL of L-DOPA solution, and 120 μL of PBS buffer were sequentially mixed. The mixture was then incubated at 37 °C for 12 h. […] Deionized water was used as the control. The inhibition of L-DOPA auto-oxidation was calculated using the same method as the melanin content analysis.

[6] = Cell viability of B16-F10 by MTT; type: cell-based; details: mouse, B16-F10 cells
Experimental: B16-F10 cells were seeded in 96-well plates at a density of 1 × 10^5 cells/mL and cultured at 37 °C with 5% CO2 for 24 h. Subsequently, various concentrations of carboxylic acids were added, and the cells were further incubated for 24 h. Then, 6 μL of MTT (5 mg/mL) was added, and the cells were cultured for an additional 4 h. Afterward, 200 μL of DMSO was added to dissolve the formazan crystals by gently pipetting up and down. The absorbance at 570 nm (OD570) was measured using a microplate reader (Infinite 200Pro, Tecan), with deionized water serving as the control. The cell viability was calculated with Equation (2): (2) [(OD570 of sample)/OD570 of control]×100%

[7] = test system: B16-F10 cells; test: Melanin content analysis of B16-F10 cells (α-MSH stimulated); type: cell-based; details: Mus musculus, B16-F10, α-MSH 1 μM, 48 h, read-out: melanin inhibition rate; for inhibition at 6000 µM: 6 mM
Experimental: A 900 μL cell suspension with an approximate density of 50% confluence was seeded into a 12-well plate and cultured for 24 h at 37 °C with 5% CO2. Subsequently, various concentrations of carboxylic acids were added, and the cells were further incubated for 1 h. Then, 1 μL of 1 mM α-melanocyte-stimulating hormone (α-MSH) solution was added to achieve a final concentration of 1 μM, and the cells were cultured for an additional 48 h at 37 °C with 5% CO2 to stimulate melanogenesis. Afterward, the cells were digested with trypsin, collected by centrifugation at 10,000 rpm for 5 min (Andreas Hettich GmbH & Co., KG, Tuttlingen, Germany), and the supernatant was discarded. Each tube was treated with 200 μL of 1 M NaOH solution and incubated in a water bath at 60 °C for 20 min. Following incubation, the samples were vortexed to ensure homogeneity, and 200 μL of each sample was transferred to a 96-well plate. The absorbance at 405 nm (OD405) was measured using a microplate reader (Infinite 200Pro, Tecan), and the data were recorded to calculate the melanin content, with deionized water serving as the control. The reduction in melanin content was calculated with Equation (3):(3) [(OD405 of control−OD405 of sample)/OD405 of control]×100%

[8] = cited from earlier work
[9] = target: tyrosinase from BioVision, Inc. (claimed to be of human origin); set-up: method as in PMID 38909081; details: cited from earlier work
[10] = test system: rats; details: cited from earlier work
[11] = test system: guinea pigs; details: cited from earlier work
[12] = test system: tyrosinase and Tyrp 1/2; details: Western blot; 300 and 500 μg/mL, 48 h intervals during 5 d culture; cited from earlier work

Row | Structure (SMILES) | decrease of tyrosinase fluorescence intensity [2] [%] | inhibition mechanism [3] | pH ([4]; 6 mM) | L-DOPA auto-oxidation inhibition rate [5] | IC50 [5] [µM] | viability at 24 h, 6 mM [6] [%] | inhibition at 6000 µM [7] [%] | IC50 DOPA auto-oxidation inhibition [8] [µg/mL] | also measured
1 | O=C(O)[C@@H]1CCC(O)=N1 [L-pyroglutamic acid] | 48.6 | competitive inhibition | 3.7 | exceeding 80% | 660 | > 90 | 27.8 | – | inhibition at 6000 µM ([1]; 6 mM): > 80%; Ki [3]: 1950 µM
2 | O=C1O[C@H]([C@@H](O)CO)C(O)=C1O [ascorbic acid] | – | – | – | – | – | – | – | 989.6 (≈ 5.62 mM) | –
3 | O=c1cc(CO)occ1O [kojic acid, reference compound] | – | – | – | – | – | – | – | 418.5 (≈ 2.94 mM) | IC50 [9]: 9.27 µM
4 | CC(O)C(=O)O (centres unmarked) [lactic acid] | 45.0 | mixed-type inhibition | around 6 | exceeding 80% | 570 | > 90 | 14.1 | – | inhibition at 6000 µM [1]: 47%; inhibition at 12000 µM [1]: 89%; Ki ([3]; GraphPad Prism, mixed-model or competitive model, read-out: inhibition constant (Ki)): 2710 µM; inhibition constant (KIS) for enzyme–substrate complex ([3]; mixed-type inhibitors): 17.032 mM; pH ([4]; 12 mM): 3.6; viability at 24 h, 12 mM ([6]; 12 mM): 97%; inhibition at 12000 µM ([7]; 12 mM): 29.4%; oral LD50 [10]: 3730 mg/kg; oral LD50 [11]: 1810 mg/kg; regulatory effect on melanogenesis-related proteins (tyrosinase and Tyrp 1/2) [12]: no significant regulatory effects
